Entries after “also recorded” stand apart in the source; their conditions may differ. Marks after values point to notes of the source that are not given here.
Key:
[1] = Crystallinity by DSC in isothermal mode and X-ray diffraction; format: physicochemical; conditions: deduced from DSC (R) or X-ray diffraction (T7)
Method: Samples T7 and R were analysed by X-ray diffraction using a Bruker APEX-II Quasar diffractometer equipped with a molybdenum microsource (λ=0.71073 Å). Each sample was ground beforehand in a mortar for two minutes. Each of the powders thus obtained is then transferred to a capillary with diameter of 0.5 mm that is transparent to X-rays, and is then mounted on a goniometer. The recording characteristics are perfectly identical for each sample, namely: […]

[2] = tested on: laying hens; experiment: Feeding laying hens: laying performance and egg parameters; format: in vivo; conditions: for Albumen / Average weight of the eggs / Consumption index / Daily food intake / Laying frequency / Weight of eggs / Yolk / Final body weight: 0.13% methionine equivalent in feed, mean; for Final body weight: after 6 weeks
Method: Eighty laying hens aged 45 weeks were housed for 6 weeks and were distributed at random into […] equal groups (20 per group). Each hen was kept in an individual cage at a temperature of (20±2° C.) with controlled lighting conditions. All the hens were offered a similar basic diet, with or without addition of DLM, of HMTBA-Ca or of a 50/50 mixture (HMTBA-Ca: […] All the laying hens had free access to drinking water and were fed throughout the 6-week period of the experiment.

[3] = tested on: growing chickens; experiment: Feeding growing chickens: growth performance; format: in vivo; conditions: 46-day-old chickens, 0.3% in feed (0.24% finishing phase); mean ± standard deviation
Method: (§1) One hundred and forty-seven commercial chickens (1 day old, 48 g) were housed from day 1 to day 46, including the starting phase (days 1-21) and the finishing phase (days 22-46). All the chickens were randomly distributed in seven equal groups (21 per group), and each group was made up of three subgroups of 7 birds each. Each subgroup was kept in an enclosure at a temperature of (28±2° C.), with controlled lighting conditions. All the chickens were offered a similar basic diet, with or without addition of DLM, HMTBA or HMTBA-Ca at levels of 0 (control) or 0.3% in the starting phase and 0 or 0.24% in the finishing phase (Table 4). All the chickens had free access to food and drinking water throughout the test period of 46 days. The weight of the chickens was measured every week and food intake was monitored throughout the experiment.
(§2) At the end of the experiment, the birds were weighed individually and sacrificed. The abdominal fat, the muscles of the thigh and of the breast were taken, lyophilized and weighed.

[4] = tested on: growing chickens; experiment: Feeding growing chickens: composition of the carcass; format: in vivo; conditions: for DB, weight of the muscles of the breast / DL, weight of the muscles of the thigh / PDAT, ratio of the weight of the abdominal fat to that of the eviscerated chicken / PDB, ratio of the weight of the muscles of the breast (without bone or skin) to that of the eviscerated chicken / PDL, ratio of the weight of the muscles of the thigh (without bone or skin) to that of the eviscerated chicken: 46-day chickens, mean ± standard deviation
Method: as §1, §2

[5] = tested on: growing chickens; experiment: Feeding growing chickens: apparent digestibility of nutrients; format: in vivo; conditions: 0.3% in feed; for Apparent digestibility of ash / Apparent digestibility of crude fats / Apparent digestibility of crude proteins / Apparent digestibility of dry matter: 46-day chickens, mean ± standard deviation for 10 chickens
Method: as §1
The excrement of the chickens was collected for the 3 days following the 42nd day of the experiment, were frozen and stored (at −20° C.) for later chemical analyses.

Row | SMILES | Albumen ([2]; 6 weeks) | Average weight of the eggs ([2]; 6 weeks) | Consumption index ([2]; 6 weeks) | Daily food intake ([2]; 6 weeks) | Laying frequency ([2]; 6 weeks) | Weight of eggs ([2]; 6 weeks) | Yolk ([2]; 6 weeks) | Final body weight [2] | Feeding:gain [3] | Final body weight [3] | Food intake [3] | Gain in body weight [3] | DB, weight of the muscles of the breast ([4]; 0.3% in feed) | DL, weight of the muscles of the thigh ([4]; 0.3% in feed) | PDAT, ratio of the weight of the abdominal fat to that of the eviscerated chicken ([4]; 0.3% in feed) | PDB, ratio of the weight of the muscles of the breast (without bone or skin) to that of the eviscerated chicken ([4]; 0.3% in feed) | PDL, ratio of the weight of the muscles of the thigh (without bone or skin) to that of the eviscerated chicken ([4]; 0.3% in feed) | Apparent digestibility of ash [5] | Apparent digestibility of crude fats [5] | Apparent digestibility of crude proteins [5] | other results
1 | CSCCC(O)C(=O)[O-].CSCCC(O)C(=O)[O-].[Ca+2] (stereo not drawn) [R, (HMTBA)2Ca] |  |  |  |  |  |  |  |  |  |  |  |  |  |  |  |  |  |  |  |  | Degree of crystallinity [1]: 100%
2 | CSCCC(N)C(=O)O (racemic) [DLM, DL-methionine, reference compound] | 38.38 g/egg | 63.4 g/egg | 1.87 g feed/g egg | 112.4 g/day | 95% | 60.3 g/day | 16.38 g/egg | 1834.9 g/hen | 2.01 ± 0.10 g:g | 3.17 ± 0.15^ab kg/chicken | 141.51 ± 0.24 g/chicken/day | 70.47 ± 3.37^ab g/chicken/day | 596.88 ± 56.68^abc g | 586.03 ± 23.43^ab g | 1.88 ± 0.43^a % | 22.77 ± 1.44^b % | 20.12 ± 0.22^a % | 56.02 ± 1.01^b % | 86.15 ± 0.93% | 63.70 ± 2.85^cd % | Apparent digestibility of dry matter [5]: 78.22 ± 1.70^c %
3 | CSCCC(O)C(=O)[O-].CSCCC(O)C(=O)[O-].[Ca+2] (stereo not drawn) [HMTBA-Ca, (HMTBA)2Ca] | 39.53 g/egg | 64.9 g/egg | 1.82 g feed/g egg | 112.7 g/day | 95% | 62.0 g/day | 16.47 g/egg | 1897.2 g/hen | 1.91 ± 0.12 g:g | 3.38 ± 0.28^ab kg/chicken | 144.53 ± 20.93 g/chicken/day | 75.08 ± 6.18^ab g/chicken/day | 617.54 ± 45.21^bc g | 588.64 ± 38.07^ab g | 2.49 ± 0.59^b % | 22.98 ± 3.00^b % | 22.06 ± 1.64^c % | 44.62 ± 0.89^a % | 90.28 ± 0.20^c % | 66.44 ± 0.37^cd % | Albumen content of the eggs, more relative to the eggs of hens fed with DLM ([2]; 6 weeks, relative to DLM): 3%; Average weight of the eggs, higher relative to that obtained with DLM ([2]; 6 weeks, relative to DLM): 2.3%; Percentage of abdominal fat (in words) ([4]; chickens, 0.3% in feed, 46 days): increase in the percentage of abdominal fat; Weight of the muscles of the thigh and breast relative to DLM / the other groups (in words) ([4]; chickens, 46 days): significantly higher; also recorded: highest weight of muscles of the thigh and breast; Apparent digestibility of dry matter [5]: 81.80 ± 0.32^d %; Digestibility of the nutrients relative to the other two forms of methionine (in words) ([5]; chickens, 46 days): far better digestibility

From US9718769B2, “Pulverulent compositions of a complex between an acid and a metal and method of preparation thereof” (INNOV'IA 3I, priority 2012, dated 2017)
